Source: paper PMC7719179, “Small molecule inhibition of Dynamin-dependent endocytosis targets multiple niche signals and impairs leukemia stem cells” (Nature Communications, 2020)
Several values for one entry are separate records, joined by “and”; a condition that tells them apart may be missing. Identical values can stand only once. Like-named read-outs stand apart in the source and are kept apart here.

How the values were obtained:
DN3a thymocytes = test: Relative viability and LC50 on DN3a thymocytes of WT, Lmo2^Tg, Lmo2^Tg;STAT5-CA^Tg and Lmo2^Tg;N1-ICD^Tg mice, 48 h
Procedure: Pre-leukemic and leukemic thymocytes were purified by flow cytometry and co-cultured on GFP-positive OP9 and OP9-DL1 stromal cell lines, as described previously. Thymocytes were co-cultured in reconstituted alpha-MEM medium (#12318, Gibco, Grand Island NY, USA) supplemented with 20% FCS (#12318), HEPES 10 mM (#15630-080), sodium pyruvate 1 mM (#11360-070), β-mercaptoethanol 55 μM (#21985-023), Glutamax 2 mM (#15750-060), 1% Penicillin/Streptomycin (#15140-122), 5 ng/mL rmFLT-3 ligand (#250-31 L, Pepro Tech), 5 ng/mL rmIL-7 (#217-17, Pepro Tech) and 25 ng/mL rmSCF (#250-03, Pepro Tech). After 48 h of co-culture, thymocytes were counted and analysed by FACS. […]
viability of wild-type (WT), Lmo2 Tg, Lmo2Tg;STAT5-CA Tg and Lmo2Tg;N1-ICD Tg DN3a thymocytes […]
normalized to cells treated with vehicle (%DMSO). Mean ± SEM of n=4 biological replicates. b, […]
thymocytes from 6-week old wild-type (WT), Lmo2 Tg, Lmo2Tg;STAT5-CATg and Lmo2Tg ;N1-ICD Tg mice. Mean ± SD of n=4 biological replicates are shown. 2-way ANOVA with Tukey’s correction test; […]
(1 picture or pasted object on this page, not shown here)
*P<0.05, *** P<0.001 compared to WT; #P<0.05, ##P<0.01, ###P<0.001 compared to L mo2Tg. c, Levels of pStat5 (left) after stimulation with IL-7 , as well as Hes1 expression (right) after co-culture on OP9- […]
(0.2 µM), Ruxolitinib (0.2 µM) and DAPT (0.1 µM). Unstimulated cells were used as negative controls (dashed line). Student’s t -test, ** P<0.01, *** P<0.001 compared to unstimulated cells. MFI ± SEM, 1-way ANOVA with Tukey’s correction test; **P<0.01, *** P<0.001 compared to vehicle. d, Clonogenic assay of normal murine hematopoietic stem and progenitor cells (HSPCs) cultured in the presence […]
± SD, Student’s t -test ( n=4) **P<0.01 compared to vehicle. e, Relative viability of wild-type (WT), […]
2 (0.2 µM), Ruxolitinib (0.2 µM) and DAPT (0.1 µM) for 48 hours. Viability was normalized to cells treated with vehicle (%DMSO, which was reported as 100). Mean ± SEM, 2-way ANOVA with Tukey’s correction test, **P<0.01, *** P<0.001 compared to vehicle.

[1] = system: Ba/F3-IL7R^Stat5-CA cells; test: Cytotoxic activity in IL-7-dependent and IL-7-independent Ba/F3-IL7R^Stat5-CA cells; type: cell-based, murine; conditions: for Survival (%) over survival at day 0, reported as 100%: Ba/F3-IL7R^Stat5-CA cells, dose = IC50 or LC50 of each drug
Source text: The doxycycline-inducible dual-colour TRMPVIR (TRE-dsRed-miR30/shRNA-PGK-Venus-IRES-rtTA3) retroviral vector[84] was kindly given by R. A. Dickins and was modified by replacing the dsRed-miR30/shRNA sequence by a T2A self-cleaving peptide[85] fusioned with the mCherry fluorescent protein (from TRIPZ, Addgene) inserted into the BamHI and EcoRI sites of the plasmid downstream of the TRE promoter to generate the TxTCPVIR (TRE-gene-T2A-mCherry-PGK-Venus-IRES-rtTA3) retroviral vector. Using standard cloning techniques, we inserted the full-length sequence of Stat5-CA from the pMig-R1 construct into the TxTCPVIR vector to generate the TxTCPVIR-Stat5-CA construct. All subcloned constructs were verified by DNA sequencing (Micromon, Monash University, Australia). Detailed cloning strategies, primers sequences and vectors are available on request.
Ba/F3 cells (kindly provided by a person from The Walter and Eliza Hall Institute of Medical Research) were infected with pMIG-R1/Il7r retroviral supernatants produced in 293T cells, and transduced cells were sorted with a BD Influx (BD Australia) and selected by culture in medium supplemented with 5 ng/mL rmIL-7 (#217-17, Pepro Tech, Rocky Hill NJ, USA) for 7 days. Ba/F3 cells stably expressing Il7r (Ba/F3-IL7R) were infected with TxTCPVIR-Stat5-CA retroviral supernatants produced in 293T. Cell sorting was performed with a BD Influx and transduced cells were treated with doxycycline for 48 h to induce the expression of the Stat5-CA-T2A-mCherry fusion protein.
Flow cytometry analyses were performed as previously described[10],[86] on single-cell suspensions stained using BD Pharmingen antibodies (BD Australia, North Ryde NSW, Australia) against mouse CD4 (RM4-5), CD8 (53-6.7), CD25 (PC61.5), CD44 (IM7), CD45.1 (A20), CD45.2 (104), Thy1.2 (53-2.1; #561616), TCRβ (H57-597), CD117 (ACK45), CD135 (A2F10.1), CD150 (TC15-12F12.2; #562373), B220 (RA3-6B2; #563708), CD3 (145-2C11; #563004), CD19 (ID3; #557655), Gr-1 (RB6-8C5; #563299 and #565033), CD11b (M1/70; #563015 and #560455), Ter119 (Ter119; #565523 and #557909), Sca-1 (D7; #558160) and an eBioscience antibody (eBioscience, Invitrogen) against mouse NOTCH1 (22E5). DN3 populations and IL-7R were stained using BioLegend antibodies (Australian Biosearch, Balcatta WA, Australia) against mouse CD28 (E18) and CD127 (A7R34), respectively. Apoptosis was measured using an antibody against AnnexinV (#556420, BD Australia) and the […] Sytox Blue (BD Australia) following the manufacturer’s protocol.

N#CC[C@H](C1CCCC1)n1cc(-c2ncnc3[nH]ccc23)cn1 [Ruxolitinib]
fold resistance of Lmo2^Tg;STAT5-CA^Tg DN3a thymocytes vs Lmo2^Tg DN3a cells (DN3a thymocytes; LC50 comparison, 48 h): 5.3 fold | Survival (% DMSO) (DN3a thymocytes; Lmo2Tg;STAT5-CATg): 69.32 % DMSO and 78.95 % DMSO and 73.54 % DMSO | viability at 40 µM (DN3a thymocytes; Mus musculus, Thymocyte, read-out: Relative % viable cells, Lmo2Tg DN3a thymocytes, dose 0.04 mM (so in the source)): 88.8% | viability at 40 µM (DN3a thymocytes; Mus musculus, Thymocyte, read-out: Relative % viable cells, Lmo2Tg;STAT5-CATg DN3a thymocytes, dose 0.04 mM (so in the source)): 95.5% | viability at 200 µM (DN3a thymocytes; Mus musculus, Thymocyte, read-out: Relative % viable cells, Lmo2Tg;STAT5-CATg DN3a thymocytes, dose 0.2 mM (so in the source)): 69.3% | Survival (% DMSO) (DN3a thymocytes; WT): 39.65 % DMSO and 53.08 % DMSO and 37.17 % DMSO | Survival (%) over survival at day 0, reported as 100% ([1]; +IL-7 -DOX, 0 h): 101.66% and 101.91% and 100.26% and 101.92% and 100.41% and 100.83% | Survival (%) over survival at day 0, reported as 100% ([1]; +IL-7 -DOX, 24 h): 71.50% and 70.41% and 55.25% and 49.40% and 37.10% and 63.11% | Survival (%) over survival at day 0, reported as 100% ([1]; -IL-7 +DOX, 0 h): 100.45% and 99.83% and 99.53% and 102.59% and 101.73% and 102.89% | Survival (%) over survival at day 0, reported as 100% ([1]; -IL-7 +DOX, 24 h): 85.97% and 82.57% and 104.88% and 98.10% and 101.20% and 101.43% | Survival (%) over survival at day 0, reported as 100% ([1]; -IL-7 +DOX, 48 h): 97.70% and 95.00% and 95.90% and 97.50% and 97.30% and 99.10% | Survival (%) over survival at day 0, reported as 100% ([1]; -IL-7 +DOX, 72 h): 94.40% and 93.30% and 85.80% and 83.20% and 99.40% and 84.90% | Survival (%) over survival at day 0, reported as 100% ([1]; -IL-7 +DOX, 96 h): 93.30% and 85.80% and 83.20% and 99.40% | Survival (%) over survival at day 0, reported as 100% ([1]; -IL-7 +DOX, 120 h): 92.90% and 90.20% and 86.50% and 89.30% and 78.60% and 92.10% | sensitivity of Ba/F3-IL7R^Stat5-CA cells with constitutive pStat5 (doxycycline) ([1]; result in words): resistant

C[C@H](NC(=O)Cc1cc(F)cc(F)c1)C(=O)N[C@H](C(=O)OC(C)(C)C)c1ccccc1 [DAPT, N-[N-(3,5-Difluorophenacetyl)-L-alanyl]-S-phenylglycine t-butyl ester]
fold resistance of Lmo2^Tg;N1-ICD^Tg DN3a cells vs Lmo2^Tg thymocytes (DN3a thymocytes; LC50 comparison, 48 h): 9 fold | Survival (% DMSO) (DN3a thymocytes; Lmo2Tg): 17.19 % DMSO and 25.07 % DMSO and 13.99 % DMSO | Relative % viable cells (DN3a thymocytes; Lmo2Tg DN3a thymocytes, dose 0.02 mM (so in the source)): 79.43% and 55.29% and 67.53% | Relative % viable cells (DN3a thymocytes; Lmo2Tg DN3a thymocytes, dose 0.1 mM (so in the source)): 25.07% and 13.99% and 17.19% | Relative % viable cells (DN3a thymocytes; Lmo2Tg DN3a thymocytes, dose 0.5 mM (so in the source)): 5.42% and 10.32% and 11.23% | Relative % viable cells (DN3a thymocytes; Lmo2Tg DN3a thymocytes, dose 2.5 mM (so in the source)): 5.22% and 9.91% and 8.68% | Relative % viable cells (DN3a thymocytes; Lmo2Tg DN3a thymocytes, dose 12.5 mM (so in the source)): 5.76% and 9.27% and 6.48% | Survival (% DMSO) (DN3a thymocytes; Lmo2Tg;Notch1Tg): 55.35 % DMSO and 68.13 % DMSO and 61.12 % DMSO and 65.99 % DMSO | Relative % viable cells (DN3a thymocytes; Lmo2Tg;Notch1Tg DN3a thymocytes, dose 0.02 mM (so in the source)): 68.73% and 83.56% and 62.24% and 87.12% | Relative % viable cells (DN3a thymocytes; Lmo2Tg;Notch1Tg DN3a thymocytes, dose 0.1 mM (so in the source)): 55.35% and 68.13% and 61.12% and 65.99% | Relative % viable cells (DN3a thymocytes; Lmo2Tg;Notch1Tg DN3a thymocytes, dose 0.5 mM (so in the source)): 52.22% and 56.33% and 58% | Survival (% DMSO) (DN3a thymocytes; Lmo2Tg;STAT5-CATg): 52.45 % DMSO and 51.11 % DMSO and 34.78 % DMSO | Relative % viable cells (DN3a thymocytes; Lmo2Tg;STAT5-CATg DN3a thymocytes, dose 0.02 mM (so in the source)): 76.45% and 84.74% and 59.85% | Relative % viable cells (DN3a thymocytes; Lmo2Tg;STAT5-CATg DN3a thymocytes, dose 0.1 mM (so in the source)): 52.45% and 51.11% and 34.78% | Relative % viable cells (DN3a thymocytes; Lmo2Tg;STAT5-CATg DN3a thymocytes, dose 0.5 mM (so in the source)): 38.67% and 42.63% and 42.16% | Relative % viable cells (DN3a thymocytes; Lmo2Tg;STAT5-CATg DN3a thymocytes, dose 2.5 mM (so in the source)): 27.14% and 38.85% and 21.86% | Relative % viable cells (DN3a thymocytes; Lmo2Tg;STAT5-CATg DN3a thymocytes, dose 12.5 mM (so in the source)): 19.43% and 16.58% and 21.18%
